Experimental data taken from patent US5116857A, “Method of increasing gastrointestinal motility with substituted benzamides” (Laboratoires Delagrange Div. Societe d'Applications …, priority 1988, dated 1992).

What was measured:
[1] = tested on: guinea-pigs; assay: Gastric emptying measured by x-ray localization of barium sulfate spheroids in guinea pigs after i.p. administration; type: in vivo, guinea pig; details: for Gastric emptying (percentage of spheroids leaving the stomach) after 1 hour / Gastric emptying (percentage of spheroids leaving the stomach) after 2 hours: 1 mg/kg i.p.; for Gastric emptying (percentage of spheroids leaving the stomach) after 1 hour / Gastric emptying (percentage of spheroids leaving the stomach) after 2 hours / Gastric emptying after 2 hours: guinea-pigs; for Gastric emptying (percentage of spheroids leaving the stomach) after 2 hours: control group 28%; for Gastric emptying at 1 mg/kg compared with metoclopramide 5 mg/kg: 1 mg/kg of compound vs 5 mg/kg of metoclopramide; for Gastric emptying after 2 hours: 5 mg/kg, control group 24.8%
Protocol: Feeding of the animals were interrupted 14 hours before measurement of gastric emptying. The experimentation was conducted under weak illumination, with the least possible noise and disturbances, solely by experimentors having daily contact with the guinea pigs and having sufficient initial training in handling the animals. The animals were then subjected to minimal stress.
The measurement of gastric emptying was carried out by x-ray localization (50 KV, 30 mA, 0.5-0.8 s.), on Kodak plates (NS-2T, 13×18 cm) of barium sulfate spheroids (approximately 30, 1 mm in diameter) coated with polystyrene, which the guinea pigs were made to swallow by placing them in the back of the throat, in a solution of 0.2 ml of 1% carboxymethylcellulose with 0.05 ml of glycerine, so as to initiate rapid and voluntary deglutition.
The passage of the spheroids was followed for 3 to 4 hours, the animals being placed in their customary cages for that time and taken out only 5 minutes before x-ray exposure (at intervals of 30-60 minutes). During the x-ray procedure, the animals were placed in individual holding cages, keeping them comfortably in a stable position, the cage being sufficiently sized (33×15 cm and 13 cm high) so as to comfortably maintain a 450 to 550 gram guinea pig between the padded walls, the animal being trained to enter the cage and remain there tranquilly and without stress.
Gastric emptying was measured by the number of spheroids leaving the stomach. For each dose of product studied, 6 guinea pigs were used, and the responses were compared to those of guinea pigs receiving the appropriate vehicle.
Compound (I) was studied at doses of 1 mg/kg and 0.01 mg/kg, Compounds (II) to (V) were studied at a dose of 1 mg/kg, the compounds (VI) to (VIII) at a dose of 5 mg/kg. Metoclopramide was evaluated at doses of 1 mg/kg and 5 mg/kg.
The results are recorded in graphic form in FIG. 1. The compounds according to the invention and metoclopromide were dissolved in distilled water and the doses are expressed as base.
This emptying is expressed, in FIG. 1 and Table 1, as a percentage of spheroids leaving the stomach.

[2] = Acute toxicity, intravenous, male mice; details: mouse, in vivo, read-out: LD50 (median lethal dose)
Text: The acute toxicity of the compounds of the invention administered intravenously was studied in male mice.

For `CCN(CC)CCNC(=O)c1cc(Cl)c(NC2=NCCN2)cc1OC` [Compound I, N-[2-(diethylamino)ethyl]-2-methoxy-4-[(4,5-dihydro-1H-imidazol-2-yl)-amino]-5-chlorobenzamide], which “Gastric emptying (percentage of spheroids leaving the stomach) after 1 hour” value [1] is on record?
Its value is 24%.

And the “Gastric emptying (percentage of spheroids leaving the stomach) after 2 hours” value [1]?
The value was 63%.

And the “Gastric emptying at 1 mg/kg compared with metoclopramide 5 mg/kg” value [1]?
Its value is “a result equivalent to the use of 5 mg/kg of metoclopramide”.

What about the LD50 [2] of the same compound?
The LD50 was 12.8 to 14.4 mg/kg.

What does the source list for `CCN(CC)CCNC(=O)c1cc(Cl)c(NC2=NCCS2)cc1OC` [Compound II, N-[2-(diethylamino)ethyl]-2-methoxy-4-[(4,5-dihydro-2-thiazolyl)amino]-5-chlorobenzamide]?
Gastric emptying (percentage of spheroids leaving the stomach) after 1 hour [1]: 12.5%; Gastric emptying (percentage of spheroids leaving the stomach) after 2 hours [1]: 60%; LD50 [2]: 40.6 to 48.7 mg/kg

Which “Gastric emptying (percentage of spheroids leaving the stomach) after 1 hour” value [1] does the source give for `CCN(CC)CCNC(=O)c1cc(Cl)c(NC2=NCCO2)cc1OC` [Compound III, N-[2-(diethylamino)ethyl]-2-methoxy-4-[(4,5-dihydro-2-oxazolyl)amino]-5-chlorobenzamide] here?
Its value is 20%.

And the “Gastric emptying (percentage of spheroids leaving the stomach) after 2 hours” value [1]?
The value was 57%.

What about the LD50 [2] of the same compound?
The LD50 was 91 to 116 mg/kg.

Which results are given for `CNC(=O)c1cc(Cl)c(NC2=NCCN2)cc1OC` [Compound IV, N-methyl-2-methoxy-4-[(4,5-dihydro-1H-imidazol-2-yl)amino] -5-chlorobenzamide]?
Gastric emptying (percentage of spheroids leaving the stomach) after 1 hour [1]: 38%; Gastric emptying (percentage of spheroids leaving the stomach) after 2 hours [1]: 62%; Gastric emptying at 1 mg/kg compared with metoclopramide 5 mg/kg [1]: a result equivalent to the use of 5 mg/kg of metoclopramide; LD50 [2]: 95.8 to 138 mg/kg

Which “Gastric emptying (percentage of spheroids leaving the stomach) after 1 hour” value [1] does the source give for `CCN(CC)CCNC(=O)c1cc(Cl)c(NC2=NCCN2)cc1O` [Compound V, N-[2-(diethylamino)ethyl]-2-hydroxy-4-[(4,5-dihydro-1H-imidazol-2-yl)-amino]-5-chlorobenzamide] here?
The value was 32%.

And the “Gastric emptying (percentage of spheroids leaving the stomach) after 2 hours” value [1]?
Its value is 55%.

What about the LD50 [2] of the same compound?
Its LD50 is 65.7 to 76.7 mg/kg.

For `COc1cc(NC2=NCCN2)c(Cl)cc1C(=O)NC(C)C` [Compound VII, N-isopropyl-2-methoxy-4-[(4,5-dihydro-1H-imidazol-2-yl)amino]-5-chlorobenzamide], which “Gastric emptying after 2 hours” value [1] is on record?
Its value is 46.2%.

For `C=CCNC(=O)c1cc(Cl)c(NC2=NCCN2)cc1OC` [Compound VIII, N-allyl-2-methoxy-4-[(4,5-dihydro-1H-imidazol-2-yl)amino]-5-chlorobenzamide], which “Gastric emptying after 2 hours” value [1] is on record?
The value was 47.4%.

Which “Gastric emptying (percentage of spheroids leaving the stomach) after 1 hour” value [1] does the source give for `CCN(CC)CCNC(=O)c1cc(Cl)c(N)cc1OC` [metoclopramide, N-(2-diethylaminoethyl)-2-methoxy-4-amino-5-chlorobenzamide, reference compound] here?
The value was 16%.

And the “Gastric emptying (percentage of spheroids leaving the stomach) after 2 hours” value [1]?
The value was 39%.

What about the “Effect on gastric emptying (in words)” value ([1]; intraperitoneal, immobilized guinea-pigs, FIG. 1) of the same compound?
Its value is “an increase in gastric emptying”.

And the LD50 [2]?
Its LD50 is 25.4 to 37.9 mg/kg.
